# Measured values from PubChem BioAssay (NCI).
#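 96-well plates; 48 h exposure; 5 concentrations. Endpoints by linear interpolation between flanking doses. Not reached: highest tested concentration assigned. Abbreviation: GI50, concentration required for 50% inhibition of growth. TGI: total growth inhibition.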
# Legend:
# Assay in all cases: NCI anticancer screen, dose series, 48 h
# [1] = test system: 786-0 renal
# [2] = test system: A498 renal
# [3] = test system: A549 NSCLC
# [4] = test system: ACHN renal
# [5] = test system: BT-549 breast
# [6] = test system: CAKI-1 renal
# [7] = test system: CCRF-CEM leukemia
# [8] = test system: COLO 205 colon
# [9] = test system: DU-145 prostate
# [10] = test system: EKVX NSCLC
# [11] = test system: HCC-2998 colon
# [12] = test system: HCT-116 colon
# [13] = test system: HCT-15 colon
# [14] = test system: HL-60(TB) leukemia
# [15] = test system: HOP-62 NSCLC
# [16] = test system: HOP-92 NSCLC
# [17] = test system: HS 578T breast
# [18] = test system: HT29 colon
# [19] = test system: IGROV1 ovarian
# [20] = test system: K-562 leukemia
# [21] = test system: KM12 colon
# [22] = test system: LOX IMVI melanoma
# [23] = test system: M14 melanoma
# [24] = test system: MALME-3M melanoma
# [25] = test system: MCF7 breast
# [26] = test system: MDA-MB-231 breast
# [27] = test system: MDA-MB-435
# [28] = test system: MDA-MB-468 breast
# [29] = test system: MOLT-4 leukemia
# [30] = test system: NCI-H226 lung
# [31] = test system: NCI-H23 lung
# [32] = test system: NCI-H460 lung
# [33] = test system: NCI-H522 lung
# [34] = test system: NCI/ADR-RES ovarian
# [35] = test system: OVCAR-3 ovarian
# [36] = test system: OVCAR-4 ovarian
# [37] = test system: OVCAR-5 ovarian
# [38] = test system: OVCAR-8 ovarian
# [39] = test system: PC-3 prostate
# [40] = test system: RPMI-8226 leukemia
# [41] = test system: RXF 393 renal
# [42] = test system: SF-268 CNS
# [43] = test system: SF-295 CNS
# [44] = test system: SF-539 CNS
# [45] = test system: SK-MEL-2 melanoma
# [46] = test system: SK-MEL-28 melanoma
# [47] = test system: SK-MEL-5 melanoma
# [48] = test system: SK-OV-3 ovarian
# [49] = test system: SN12C renal
# [50] = test system: SNB-19 CNS
# [51] = test system: SR leukemia
# [52] = test system: SW-620 colon
# [53] = test system: T-47D breast
# [54] = test system: TK-10 renal
# [55] = test system: U251 CNS
# [56] = test system: UACC-257 melanoma
# [57] = test system: UACC-62 melanoma
# [58] = test system: UO-31 renal
smiles,measurement,setting,value
COc1cccc(/C=C/C(=O)c2ccc(OC)c(S(N)(=O)=O)c2)c1,GI50,[1],2.9 µM
same,TGI,[1],11 µM
same,GI50,[2],14.3 µM
same,TGI,[2],28 µM
same,GI50,[3],2.64 µM
same,TGI,[3],11.5 µM
same,GI50,[4],1.85 µM
same,TGI,[4],3.7 µM
same,GI50,[5],2.52 µM
same,TGI,[5],8.85 µM
same,GI50,[6],4.16 µM
same,TGI,[6],16.1 µM
same,GI50,[7],2.51 µM
same,TGI,[7],6.23 µM
same,GI50,[8],2.93 µM
same,TGI,[8],11 µM
same,GI50,[9],5.73 µM
same,TGI,[9],18.1 µM
same,GI50,[10],8.05 µM
same,TGI,[10],20.9 µM
same,GI50,[11],2.88 µM
same,TGI,[11],12.1 µM
same,GI50,[12],1.59 µM
same,TGI,[12],3.31 µM
same,GI50,[13],1.27 µM
same,TGI,[13],3.34 µM
same,GI50,[14],1.88 µM
same,TGI,[14],5.18 µM
same,GI50,[15],2.7 µM
same,TGI,[15],10.2 µM
same,GI50,[16],6.37 µM
same,TGI,[16],20.2 µM
same,GI50,[17],15.5 µM
same,TGI,[17],50.6 µM
same,GI50,[18],1.91 µM
same,TGI,[18],4.05 µM
same,GI50,[19],2.98 µM
same,TGI,[19],12.5 µM
same,GI50,[20],2.12 µM
same,TGI,[20],6.4 µM
same,GI50,[21],2.12 µM
same,TGI,[21],5.11 µM
same,GI50,[22],1.64 µM
same,TGI,[22],3.47 µM
same,GI50,[23],4.42 µM
same,TGI,[23],17.7 µM
same,GI50,[24],12.4 µM
same,TGI,[24],25.1 µM
same,GI50,[25],2.87 µM
same,TGI,[25],12.5 µM
same,GI50,[26],3.8 µM
same,TGI,[26],13.6 µM
same,GI50,[27],4.66 µM
same,TGI,[27],16.5 µM
same,GI50,[28],1.99 µM
same,TGI,[28],7.17 µM
same,GI50,[29],2.12 µM
same,TGI,[29],5.16 µM
same,GI50,[30],2.72 µM
same,TGI,[30],11.1 µM
same,GI50,[31],4.66 µM
same,TGI,[31],16.9 µM
same,GI50,[32],3.45 µM
same,TGI,[32],13.8 µM
same,GI50,[33],2.48 µM
same,TGI,[33],8.39 µM
same,GI50,[34],2.83 µM
same,TGI,[34],9.24 µM
same,GI50,[35],2.9 µM
same,TGI,[35],10.8 µM
same,GI50,[36],4.87 µM
same,TGI,[36],20.1 µM
same,GI50,[37],2.61 µM
same,TGI,[37],10.8 µM
same,GI50,[38],2.96 µM
same,TGI,[38],12 µM
same,GI50,[39],5.25 µM
same,TGI,[39],18.4 µM
same,GI50,[40],2.54 µM
same,TGI,[40],7.24 µM
same,GI50,[41],3.39 µM
same,TGI,[41],15.1 µM
same,GI50,[42],4.85 µM
same,TGI,[42],18.9 µM
same,GI50,[43],2.9 µM
same,TGI,[43],12.6 µM
same,GI50,[44],1.96 µM
same,TGI,[44],4.56 µM
same,GI50,[45],14 µM
same,TGI,[45],27.3 µM
same,GI50,[46],9.04 µM
same,TGI,[46],21.1 µM
same,GI50,[47],5.23 µM
same,TGI,[47],18 µM
same,GI50,[48],10.1 µM
same,TGI,[48],21.9 µM
same,GI50,[49],2.74 µM
same,TGI,[49],10.9 µM
same,GI50,[50],4.82 µM
same,TGI,[50],17.2 µM
same,GI50,[51],1.26 µM
same,TGI,[51],4.09 µM
same,GI50,[52],3.16 µM
same,TGI,[52],12 µM
same,GI50,[53],2.97 µM
same,TGI,[53],14.2 µM
same,GI50,[54],2.81 µM
same,TGI,[54],13.1 µM
same,GI50,[55],2.5 µM
same,TGI,[55],9.83 µM
same,GI50,[56],10.2 µM
same,TGI,[56],22.5 µM
same,GI50,[57],4.16 µM
same,TGI,[57],16.9 µM
same,GI50,[58],2.03 µM
same,TGI,[58],9.93 µM
